Test results: BindingDB's records for doi:10.1016/s0960-894x(02)00585-1 (Corvas International, 2002)
pKi: −log10 of the molar value.

Target: Prothrombin (Homo sapiens, UniProt P00734)
Experiment: In vitro inhibitory activity against human Thrombin (FIIa) cleavage of the chromogenic substrate

**Q.** Cc1ccc(NS(=O)(=O)c2ccc3c(c2)CCO3)c(=O)n1CC(=O)NCc1ccc2c[nH]nc2c1 was tested. Which pKi did it give?
**A.** 5.88

**Q.** Cc1cc2cn[nH]c2cc1CNC(=O)Cn1c(C)ccc(NS(=O)(=O)Cc2ccccc2)c1=O was tested. Which pKi did it give?
**A.** 6.57

**Q.** How did the pKi turn out when Cc1cnc(NCCc2ccc3c(c2)CCC3)c(=O)n1CC(=O)NCc1ccc2[nH]ccc2c1 was run?
**A.** 7.52

**Q.** Cc1cnc(NCCc2ccccn2)c(=O)n1CC(=O)NCc1ccc2[nH]ncc2c1 was tested. Which pKi did it give?
**A.** 8.51

**Q.** Cc1cnc(NC[C@H](C)c2ccccc2)c(=O)n1CC(=O)NCc1ccc2[nH]ncc2c1 was tested. Which pKi did it give?
**A.** 8.24

**Q.** With Cc1cnc(NC[C@@H](C)c2ccccc2)c(=O)n1CC(=O)NCc1ccc2[nH]cnc2c1 as the molecule, how does the pKi read?
**A.** 8.03

**Q.** With Cc1ccc(NS(=O)(=O)Cc2ccccc2)c(=O)n1CC(=O)NCc1ccc2c(N)noc2n1 as the molecule, how does the pKi read?
**A.** 6.69

**Q.** How did the pKi turn out when Cc1cnc(NCC(F)(F)c2ccccc2)c(=O)n1CC(=O)NCc1ccc2[nH]nc(N)c2c1 was run?
**A.** 8.39

**Q.** How did the pKi turn out when Cc1cnc(NCC2(c3ccccc3)CCC2)c(=O)n1CC(=O)NCc1ccc2[nH]nc(O)c2c1 was run?
**A.** 8.00

**Q.** With Cc1ccc(NS(=O)(=O)Cc2ccccc2)c(=O)n1CC(=O)NCc1ccc2c(N)[nH]nc2c1 as the molecule, how does the pKi read?
**A.** 6.65

**Q.** How did the pKi turn out when Cc1cnc(NCC2(c3ccc(F)cc3)CC2)c(=O)n1CC(=O)NCc1ccc2[nH]nc(N)c2c1 was run?
**A.** 7.82

**Q.** With Cc1cnc(NCC2(c3ccccn3)CC2)c(=O)n1CC(=O)NCc1ccc2c(N)noc2c1 as the molecule, how does the pKi read?
**A.** 7.59

**Q.** Cc1cnc(NCC(c2ccccc2)c2ccccc2)c(=O)n1CC(=O)NCc1ccc2c(N)noc2c1 was tested. Which pKi did it give?
**A.** 7.51

**Q.** How did the pKi turn out when Cc1ccc(NS(=O)(=O)c2ccc3c(c2)CCO3)c(=O)n1CC(=O)NCc1ccc2[nH]ncc2c1 was run?
**A.** 8.41

**Q.** Cc1ccc(NS(=O)(=O)c2ccc3c(c2)CCO3)c(=O)n1CC(=O)NCc1ccc2[nH]nc(N)c2c1 was tested. Which pKi did it give?
**A.** 7.54

**Q.** How did the pKi turn out when Cc1ccc(NS(=O)(=O)Cc2ccc(Cl)cc2)c(=O)n1CC(=O)NCc1ccc2[nH]cnc2c1 was run?
**A.** 8.19

**Q.** COc1ccc(C2(CNc3ncc(C)n(CC(=O)NCc4ccc5[nH]nc(N)c5c4)c3=O)CC2)cc1 was tested. Which pKi did it give?
**A.** 8.05

**Q.** With Cc1cnc(NCCc2ccccc2)c(=O)n1CC(=O)NCc1ccc2[nH]nc(O)c2c1 as the molecule, how does the pKi read?
**A.** 7.48

**Q.** Cc1cnc(NCC(F)(F)c2ccccc2)c(=O)n1CC(=O)NCc1ccc2c(N)noc2c1 was tested. Which pKi did it give?
**A.** 8.60

**Q.** CCc1cnc(NCCc2ccccc2)c(=O)n1CC(=O)NCc1ccc2[nH]ccc2c1 was tested. Which pKi did it give?
**A.** 7.62

**Q.** With Cc1cnc(NCCc2ccccc2)c(=O)n1CC(=O)NCc1ccc2c(N)noc2c1 as the molecule, how does the pKi read?
**A.** 7.09

**Q.** How did the pKi turn out when Cc1cnc(NCC2(c3ccc(F)cc3)CC2)c(=O)n1CC(=O)NCc1ccc2c(N)noc2c1 was run?
**A.** 7.80

**Q.** Cc1cnc(NCCc2ccccc2)c(=O)n1CC(=O)NCc1ccc2[nH]ncc2c1 was tested. Which pKi did it give?
**A.** 7.74

**Q.** With Cc1cnc(NCCc2ccc3c(c2)CCC3)c(=O)n1CC(=O)NCc1ccc2c(ccn2N)c1 as the molecule, how does the pKi read?
**A.** 4.91

**Q.** Cc1nc2cc(CNC(=O)Cn3c(C)cnc(NCCc4ccccc4)c3=O)ccc2[nH]1 was tested. Which pKi did it give?
**A.** < 5.40

**Q.** How did the pKi turn out when Cc1ccc(NS(=O)(=O)Cc2ccccc2)c(=O)n1CC(=O)NCc1ccc2c(N)[nH]nc2n1 was run?
**A.** 5.80

**Q.** With COc1ccc(CCNc2ncc(C)n(CC(=O)NCc3ccc4[nH]cnc4c3)c2=O)cc1 as the molecule, how does the pKi read?
**A.** 8.30

**Q.** Cc1ccc(NS(=O)(=O)Cc2ccccc2)c(=O)n1CC(=O)NCc1ccc2[nH]nc(N)c2c1 was tested. Which pKi did it give?
**A.** 7.14

**Q.** How did the pKi turn out when Cc1n[nH]c2ccc(CNC(=O)Cn3c(C)cnc(NCCc4ccccc4)c3=O)cc12 was run?
**A.** 6.35

**Q.** Cc1cnc(NCCc2ccc3c(c2)CCO3)c(=O)n1CC(=O)NCc1ccc2[nH]ncc2c1 was tested. Which pKi did it give?
**A.** 8.54

**Q.** Cc1cnc(NCCc2ccc(F)cc2)c(=O)n1CC(=O)NCc1ccc2c(N)noc2c1 was tested. Which pKi did it give?
**A.** 7.74

**Q.** Cc1cnc(NCCc2ccccc2)c(=O)n1CC(=O)NCc1ccc2nc(N)sc2c1 was tested. Which pKi did it give?
**A.** < 5.40

**Q.** How did the pKi turn out when Cc1ccc(NS(=O)(=O)Cc2ccccc2)c(=O)n1CC(=O)NCc1ccc2c(N)noc2c1 was run?
**A.** 7.13

**Q.** COc1cccc(CCNc2ncc(C)n(CC(=O)NCc3ccc4[nH]ncc4c3)c2=O)c1 was tested. Which pKi did it give?
**A.** 8.00

**Q.** With Cc1cnc(NCCc2ccccc2)c(=O)n1CC(=O)NCc1ccc2[nH]nnc2c1 as the molecule, how does the pKi read?
**A.** 6.65

**Q.** With Cc1nc(N)ccc1CNC(=O)Cn1c(C)ccc(NS(=O)(=O)Cc2ccccc2)c1=O [L-374087] as the molecule, how does the pKi read?
**A.** 9.15
